From patent US20250041282A1, “METHOD FOR TREATING INFLAMMATORY PULMONARY DISEASE” (FU JEN CATHOLIC UNIVERSITY, priority 2021, published 2025)

Columns and labels:
Type in all cases: cell-based, mouse
RAW264.7 macrophages [1] = assay: Analysis of cell viability (MTT assay); conditions: FIG. 1B
Method: RAW264.7 cells (mouse monocyte/macrophage-like cells) were purchased from the Bioresource Collection and Research Center (Hsinchu, Taiwan). The cells were maintained in DMEM (HyClone, Logan, UT, USA) containing 10% fetal bovine serum (HyClone), MEM nonessential amino acids (HyClone), […] sodium pyruvate (HyClone), and penicillin/streptomycin (HyClone). The cells were incubated at 37° C. in a humidified atmosphere of 5% CO2 and 95% air. RAW264.7 macrophages were pretreated with FJU-Cs (0 to 10 μM) as indicated for 30 min and were then stimulated with/without LPS (100 ng/ml) for 24 h. The remaining cells were evaluated by a 3-(4,5-dimethylthiazol-2-yl)-2,5-diphenyl tetrazolium bromide (MTT) assay. Cells containing formazan crystals were dissolved in DMSO (Merck, Darmstadt, Germany) and quantified at a wavelength of 595 nm using a spectrophotometer (BioTek Instruments, Inc. Winooski, Vermont, USA). Each experiment was repeated at least 3 times.

RAW264.7 macrophages [2] = assay: Morphology of LPS-stimulated macrophages; conditions: LPS 24 hours; FIG. 1C
Method: To compare the anti-inflammatory effects of the newly synthesized compound FJU-C28 (FIG. 1A) on LPS-activated murine macrophages to those of the parent compound FJU-C4, RAW264.7 macrophages were pretreated with various concentrations of FJU-Cs for 30 min and then stimulated with or without LPS for 24 hours. […] LPS stimulation changed the shape of macrophages, resulting in dendritic-like cells with multiple vacuoles in the cytoplasm, whereas the untreated cells were round and small. […] This effect was consistent with the findings of the cytotoxicity assay. […] In addition, FJU-C28 suppressed the expression of iNOS and COX2 at doses higher than 5 μM (FIG. 1D).

RAW264.7 macrophages [3] = assay: Cytokine protein array analysis of conditioned culture media
Method: Cytokine array analysis was performed according to the procedure recommended by the Raybio mouse cytokine antibody array 4 (RayBiotech, Inc. Peachtree Corners, GA). This cytokine protein array was used to simultaneously determine the relative levels of 40 different cytokines, chemokines, and acute-phase proteins in a single sample. One hundred microliters of cell culture medium was used for each sample. The signal intensity in the membrane of the cytokine protein array was measured by using ImageJ software and is presented as a heat map drawn by using MultiExperiment Viewer (MeV V.4.9.0) software.
To distinguish the effect of various FJU-Cs on LPS-induced inflammation, the cell culture media of RAW264.7 macrophages treated with various conditions were harvested and analyzed by using a mouse cytokine antibody array (left panel of FIG. 3). The signal intensities on the array membranes were quantified by densitometry, and the changes in different cytokines are represented as a heat map (right panel of FIG. 3).

For `C=CCC1CC(Sc2ccccc2)=CC(=O)N1C(=O)C=C` (centres unmarked) [FJU-C28], the cytotoxicity (RAW264.7 macrophages [1]; compared with 10 μM FJU-C4, 24 hours) was “less cytotoxicity than 10 μM FJU-C4”, the LPS-induced cell death (RAW264.7 macrophages [1]; pretreated 30 min, then LPS 24 hours) was “protected RAW264.7 macrophages from LPS-induced cell death” and the “LPS-induced changes in macrophage morphology” value (RAW264.7 macrophages [2]) was “dramatically inhibited these changes in morphology in a concentration-dependent manner”. The “LPS-induced secretion of TIMP1, IL-6 and IL-10 (array, in words)” value (RAW264.7 macrophages [3]; FIG. 3) was “dramatically suppressed”, the “LPS-induced secretion/expression of RANTES (array, in words)” value (RAW264.7 macrophages [3]; FIG. 3) was “dramatically suppressed” and the “Protein array, fold change (mean ± S.E.): BLC” value (RAW264.7 macrophages [3]; LPS + compound / control) was 1.3 ± 0.1 fold change. For the same compound, the “Protein array, fold change (mean ± S.E.): CD30 L” value (RAW264.7 macrophages [3]; LPS + compound / control) was 1.6 ± 0.9 fold change, the “Protein array, fold change (mean ± S.E.): Eotaxin” value (RAW264.7 macrophages [3]; LPS + compound / control) was 10.3 ± 6.1 fold change and the “Protein array, fold change (mean ± S.E.): Eotaxin-2” value (RAW264.7 macrophages [3]; LPS + compound / control) was 2.0 ± 1.0 fold change. The “Protein array, fold change (mean ± S.E.): Fas ligand” value (RAW264.7 macrophages [3]; LPS + compound / control) was 1.1 ± 0.8 fold change, the “Protein array, fold change (mean ± S.E.): Fractalkine” value (RAW264.7 macrophages [3]; LPS + compound / control) was 1.0 ± 0.6 fold change and the “Protein array, fold change (mean ± S.E.): GCSF” value (RAW264.7 macrophages [3]; LPS + compound / control) was 20.1 ± 1.9 fold change. The “Protein array, fold change (mean ± S.E.): GM-CSF” value (RAW264.7 macrophages [3]; LPS + compound / control) was 1.5 ± 0.4 fold change, the “Protein array, fold change (mean ± S.E.): I-TAC” value (RAW264.7 macrophages [3]; LPS + compound / control) was 0.8 ± 0.3 fold change and the “Protein array, fold change (mean ± S.E.): IL-1B” value (RAW264.7 macrophages [3]; LPS + compound / control) was 2.6 ± 0.0 fold change. For the same compound, the “Protein array, fold change (mean ± S.E.): IL-1α” value (RAW264.7 macrophages [3]; LPS + compound / control) was 1.1 ± 0.1 fold change, the “Protein array, fold change (mean ± S.E.): IL-2” value (RAW264.7 macrophages [3]; LPS + compound / control) was 2.1 ± 0.2 fold change and the “Protein array, fold change (mean ± S.E.): IL-3” value (RAW264.7 macrophages [3]; LPS + compound / control) was 1.1 ± 0.2 fold change. For the same compound, the “Protein array, fold change (mean ± S.E.): IL-4” value (RAW264.7 macrophages [3]; LPS + compound / control) was 1.2 ± 0.2 fold change, the “Protein array, fold change (mean ± S.E.): IL-6” value (RAW264.7 macrophages [3]; LPS + compound / control) was 1.1 ± 0.2 fold change and the “Protein array, fold change (mean ± S.E.): IL-9” value (RAW264.7 macrophages [3]; LPS + compound / control) was 0.9 ± 0.3 fold change. The “Protein array, fold change (mean ± S.E.): IL-10” value (RAW264.7 macrophages [3]; LPS + compound / control) was 0.3 ± 0.2 fold change, the “Protein array, fold change (mean ± S.E.): IL-12 p70” value (RAW264.7 macrophages [3]; LPS + compound / control) was 0.8 ± 0.2 fold change and the “Protein array, fold change (mean ± S.E.): IL-12 p-40 p70” value (RAW264.7 macrophages [3]; LPS + compound / control) was 0.9 ± 0.1 fold change. The “Protein array, fold change (mean ± S.E.): IL-13” value (RAW264.7 macrophages [3]; LPS + compound / control) was 0.6 ± 0.0 fold change, the “Protein array, fold change (mean ± S.E.): IL-17” value (RAW264.7 macrophages [3]; LPS + compound / control) was 7.8 ± 5.3 fold change and the “Protein array, fold change (mean ± S.E.): INF gamma” value (RAW264.7 macrophages [3]; LPS + compound / control) was 1.4 ± 0.2 fold change. The “Protein array, fold change (mean ± S.E.): KC” value (RAW264.7 macrophages [3]; LPS + compound / control) was 0.8 ± 0.4 fold change, the “Protein array, fold change (mean ± S.E.): LIX” value (RAW264.7 macrophages [3]; LPS + compound / control) was 1.0 ± 0.2 fold change and the “Protein array, fold change (mean ± S.E.): Leptin” value (RAW264.7 macrophages [3]; LPS + compound / control) was 3.2 ± 0.8 fold change. For the same compound, the “Protein array, fold change (mean ± S.E.): Lymphotactin” value (RAW264.7 macrophages [3]; LPS + compound / control) was 0.7 ± 0.2 fold change, the “Protein array, fold change (mean ± S.E.): MCP-1” value (RAW264.7 macrophages [3]; LPS + compound / control) was 1.7 ± 0.2 fold change and the “Protein array, fold change (mean ± S.E.): MCSF” value (RAW264.7 macrophages [3]; LPS + compound / control) was 0.8 ± 0.1 fold change. For the same compound, the “Protein array, fold change (mean ± S.E.): MIP-1α” value (RAW264.7 macrophages [3]; LPS + compound / control) was 1.0 ± 0.2 fold change, the “Protein array, fold change (mean ± S.E.): MIP-1γ” value (RAW264.7 macrophages [3]; LPS + compound / control) was 1.2 ± 0.2 fold change and the “Protein array, fold change (mean ± S.E.): RANTES” value (RAW264.7 macrophages [3]; LPS + compound / control) was 1.3 ± 0.2 fold change. For the same compound, the “Protein array, fold change (mean ± S.E.): SDF1” value (RAW264.7 macrophages [3]; LPS + compound / control) was 0.9 ± 0.2 fold change, the “Protein array, fold change (mean ± S.E.): STNFRI” value (RAW264.7 macrophages [3]; LPS + compound / control) was 1.0 ± 0.0 fold change and the “Protein array, fold change (mean ± S.E.): STNFRII” value (RAW264.7 macrophages [3]; LPS + compound / control) was 2.1 ± 0.1 fold change. For the same compound, the “Protein array, fold change (mean ± S.E.): TCA-3” value (RAW264.7 macrophages [3]; LPS + compound / control) was 0.9 ± 0.1 fold change, the “Protein array, fold change (mean ± S.E.): TECK” value (RAW264.7 macrophages [3]; LPS + compound / control) was 0.5 ± 0.3 fold change and the “Protein array, fold change (mean ± S.E.): TIMP-1” value (RAW264.7 macrophages [3]; LPS + compound / control) was 1.1 ± 0.1 fold change. For the same compound, the “Protein array, fold change (mean ± S.E.): TIMP-2” value (RAW264.7 macrophages [3]; LPS + compound / control) was 0.0 ± 0.0 fold change and the “Protein array, fold change (mean ± S.E.): TNFα” value (RAW264.7 macrophages [3]; LPS + compound / control) was 21.0 ± 0.8 fold change.
